Tested on: Dopaminneurone der SNC
Assay: Prevention of MPP^+-induced degeneration of dopamine neurons after local co-injection into the substantia nigra pars compacta; count of intact neurons in cresyl violet stained brain sections
Assay type: in vivo, Ratten
Settings: for Anzahl intakter Neurone (Mittelwert ± S.E.M.): right SNC
Excerpt: Zum Nachweis der protectiven Wirkung der erfindungsgemäßen Verbindungen wurde der toxische Metabolit MPP^+ lokal in die Substantia nigra von Ratten injiziert und somit eine rasch fortschreitende Degeneration der Dopaminneuronen bewirkt.

How did the “Anzahl intakter Neurone (Mittelwert ± S.E.M.)” value (from here on “Anzahl intakter Neurone”) (AP-7 0.025 µmol co-injected with MPP^+ (0.025 µmol pro Seite), 4 h after injection, n=3) turn out when `NC(CCCCCP(=O)(O)O)C(=O)O` (stereo not drawn) [AP-7, 2-Amino-7-phosphonoheptansäure] was run?
Its value is 26 ± 2.

And the “Anzahl intakter Neurone” value (AP-7 0.1 µmol co-injected with MPP^+ (0.025 µmol pro Seite), 4 h after injection, n=4)?
The value was 91 ± 24 x.

And the “Anzahl intakter Neurone” value (AP-7 0.25 µmol co-injected with MPP^+ (0.025 µmol pro Seite), 4 h after injection, n=9)?
The value was 128 ± 10 xxx.

What about the “Anzahl intakter Neurone” value (AP-7 0.25 µmol co-injected with MPP^+ (0.025 µmol pro Seite), 8 h after injection, n=4) of the same compound?
Its value is 79 ± 9 xx.

What about the “Anzahl intakter Neurone” value (AP-7 0.25 µmol co-injected with MPP^+ (0.025 µmol pro Seite), 24 h after injection, n=4) of the same compound?
Its value is 66 ± 16 x.

What about the “neurodegenerativer Effekt von MPP^+ auf die Dopaminneuronen” value (simultaneous local administration with MPP^+ into the substantia nigra of rats, result in words) of the same compound?
Its value is “nahezu vollständig auf”.
